Source: article PMC12396409, “Screening and hit evaluation of a microbial metabolite library against the pathogenic Plasmodium falciparum and Toxoplasma gondii parasites” (International Journal for Parasitology: Drugs and Drug …, 2025)
Where two headings read alike, the source gives them in different places.

Experiments:
[1] = system: T. gondii RH strain (RH-Tub-eYFP) tachyzoites; assay: microbe, parasite or virus in culture; type: cell-based, Toxoplasma gondii; settings: 72 h; for percent parasite growth at 2 µg/mL: Toxoplasma gondii
[2] = system: P. falciparum 3D7 parasites; assay: P. falciparum growth inhibition assay, 1-cycle (72 h treatment), SYBR DNA staining (library screen at 2 μg/mL and dose-response); type: cell-based, Plasmodium falciparum; settings: for activity at 2 µg/mL: Plasmodium falciparum, 3D7
[3] = system: P. falciparum 3D7 parasites; assay: P. falciparum growth inhibition assay, 2-cycle (120 h treatment), delayed-death screen and dose-response; type: cell-based, Plasmodium falciparum; settings: for activity at 2 µg/mL: Plasmodium falciparum, 3D7
[4] = T. gondii, screen at 2 μg/mL, replicate 1
[5] = T. gondii, screen at 2 μg/mL, replicate 2
[6] = P. falciparum, 72 h, screen at 2 μg/mL, replicate 1
[7] = P. falciparum, 72 h, screen at 2 μg/mL, replicate 2
[8] = P. falciparum, 120 h, screen at 2 μg/mL, replicate 1
[9] = P. falciparum, 120 h, screen at 2 μg/mL, replicate 2
[10] = library screen at 2 μg/mL, % growth, replicate 1
[11] = library screen at 2 μg/mL, % growth, replicate 2
[12] = library screen at 2 μg/mL, 72 h, % growth, replicate 1
[13] = library screen at 2 μg/mL, 72 h, % growth, replicate 2
[14] = library screen at 2 μg/mL, 120 h, % growth, replicate 1
[15] = library screen at 2 μg/mL, 120 h, % growth, replicate 2

CC(=O)OC1CCC2(C)C(CCC3C2CC(=O)C2(C)C3CC3OC4(CCC(C)CO4)C(C)C32)C1 (stereo not drawn) [BIA-H1764] was tested, and the Tg_72h_%Growth_Rep1 ([1]; T. gondii RH, library screen at 2 μg/mL, % growth, replicate 1) was 117.31%, the Tg_72h_%Growth_Rep2 ([1]; T. gondii RH, library screen at 2 μg/mL, % growth, replicate 2) was 105.95% and the Pf_72h_%Growth_Rep1 ([2]; P. falciparum 3D7, 72 h, library screen at 2 μg/mL, % growth, replicate 1) was 86.38%. It also gave a Pf_72h_%Growth_Rep2 ([2]; P. falciparum 3D7, 72 h, library screen at 2 μg/mL, % growth, replicate 2) of 124.08%, a Pf_120h_%Growth_Rep1 ([3]; P. falciparum 3D7, 120 h, library screen at 2 μg/mL, % growth, replicate 1) of 85.47% and a Pf_120h_%Growth_Rep2 ([3]; P. falciparum 3D7, 120 h, library screen at 2 μg/mL, % growth, replicate 2) of 116.07%.
Compound Pyripyropene A has a Tg_72h_%Growth_Rep1 ([1]; T. gondii, parasite screen 2 μg/mL, % growth, replicate 1) of 125.43%, a Tg_72h_%Growth_Rep2 ([1]; T. gondii, parasite screen 2 μg/mL, % growth, replicate 2) of 86.00% and a Pf_72h_%Growth_Rep1 ([2]; P. falciparum, 72 h, parasite screen 2 μg/mL, % growth, replicate 1) of 79.94%. It also gave a Pf_72h_%Growth_Rep2 ([2]; P. falciparum, 72 h, parasite screen 2 μg/mL, % growth, replicate 2) of 110.00%, a Pf_120h_%Growth_Rep1 ([3]; P. falciparum, 120 h, parasite screen 2 μg/mL, % growth, replicate 1) of 67.48% and a Pf_120h_%Growth_Rep2 ([3]; P. falciparum, 120 h, parasite screen 2 μg/mL, % growth, replicate 2) of 119.28%.
Compound C[C@H]1CCC/C=C/C(=O)c2c(O)cc(O)cc2CC(=O)O1 [Dehydrocurvularin, 10,11-] has a Tg_72h_%Growth_Rep1 [1, 4] of 4.20%, a Tg_72h_%Growth_Rep2 [1, 5] of 2.39% and a Pf_72h_%Growth_Rep1 [2, 6] of 4.73%. For the same compound, the Pf_72h_%Growth_Rep2 [2, 7] was 1.02%, the Pf_120h_%Growth_Rep1 [3, 8] was 13.56% and the Pf_120h_%Growth_Rep2 [3, 9] was 16.52%.
For O=C1N[C@@H](Cc2c[nH]c3ccccc23)C(=O)N2CCC[C@@H]12 [Brevianamide F], the percent parasite growth at 2 µg/mL ([1]; T. gondii, screen at 2 μg/mL, replicate 1, read-out: Tg_72h_%Growth_Rep1) was 83.3%, the percent parasite growth at 2 µg/mL ([1]; T. gondii, screen at 2 μg/mL, replicate 2, read-out: Tg_72h_%Growth_Rep2) was 92% and the activity at 2 µg/mL ([2]; P. falciparum, 72 h, screen at 2 μg/mL, replicate 1, read-out: Pf_72h_%Growth_Rep1) was 103%. The activity at 2 µg/mL ([2]; P. falciparum, 72 h, screen at 2 μg/mL, replicate 2, read-out: Pf_72h_%Growth_Rep2) was 84.4%, the activity at 2 µg/mL ([3]; P. falciparum, 120 h, screen at 2 μg/mL, replicate 1, read-out: Pf_120h_%Growth_Rep1) was 148% and the activity at 2 µg/mL ([3]; P. falciparum, 120 h, screen at 2 μg/mL, replicate 2, read-out: Pf_120h_%Growth_Rep2) was 91%.
In the case of CCCCCCCCCCCC(=O)N[C@H]1CCOC1=O [Dodecanoyl-L-homoserine lactone], the Tg_72h_%Growth_Rep1 [1, 10] is reported as 110.87%, the Tg_72h_%Growth_Rep2 [1, 11] is reported as 103.60% and the Pf_72h_%Growth_Rep1 [2, 12] is reported as 84.60%. It also gave a Pf_72h_%Growth_Rep2 [2, 13] of 89.07%, a Pf_120h_%Growth_Rep1 [3, 14] of 96.32% and a Pf_120h_%Growth_Rep2 [3, 15] of 89.02%.
CCCCCC(=O)C(CCCC)c1oc(=O)c(CCCC)c(O)c1CCCC (stereo not drawn) [Elasnin] showed a Tg_72h_%Growth_Rep1 [1, 10] of 103.90%, a Tg_72h_%Growth_Rep2 [1, 11] of 75.71% and a Pf_72h_%Growth_Rep1 [2, 12] of 87.43%. For the same compound, the Pf_72h_%Growth_Rep2 [2, 13] was 85.83%, the Pf_120h_%Growth_Rep1 [3, 14] was 85.68% and the Pf_120h_%Growth_Rep2 [3, 15] was 81.51%.
COc1c(OC)c(-c2c[nH]c3ccccc23)c(OC)c(OC)c1-c1c[nH]c2ccccc12 [Asterriquinol D dimethylether] gave a Tg_72h_%Growth_Rep1 [1, 10] of 135.53%, a Tg_72h_%Growth_Rep2 [1, 11] of 89.90% and a Pf_72h_%Growth_Rep1 [2, 12] of 80.59%. It also gave a Pf_72h_%Growth_Rep2 [2, 13] of 80.67%, a Pf_120h_%Growth_Rep1 [3, 14] of 55.71% and a Pf_120h_%Growth_Rep2 [3, 15] of 80.70%.
CC(=O)O.CC(=O)O.CC[C@H](C)C[C@H](C)CCCCCCCCC(=O)N[C@H]1C[C@@H](O)[C@@H](NCCN)NC(=O)[C@@H]2[C@@H](O)CCN2C(=O)[C@H]([C@H](O)CCN)NC(=O)[C@H]([C@H](O)[C@@H](O)c2ccc(O)cc2)NC(=O)[C@@H]2C[C@@H](O)CN2C(=O)[C@H]([C@@H](C)O)NC1=O [Caspofungin acetate] showed a Tg_72h_%Growth_Rep1 [1, 4] of 95.80%, a Tg_72h_%Growth_Rep2 [1, 5] of 93.96% and a Pf_72h_%Growth_Rep1 [2, 6] of 37.83%. For the same compound, the Pf_72h_%Growth_Rep2 [2, 7] was 84.89%, the Pf_120h_%Growth_Rep1 [3, 8] was 148.27% and the Pf_120h_%Growth_Rep2 [3, 9] was 78.66%.
